PMC7397056, “Design, Facile Synthesis and Characterization of Dichloro Substituted Chalcones and Dihydropyrazole Derivatives for Their Antifungal, Antitubercular and Antiproliferative Activities” (Molecules, 2020)
Converted amounts (≈) assume the structure as drawn.

system: Mycobacterium tuberculosis H37Rv; assay: Antitubercular activity, broth dilution assay (MIC); type: cell-based; details: Mycobacterium tuberculosis, H37RV, 504 h, Middlebrook 7H9 broth, 37 °C, 21 days

SMILES	MIC [µM]
O=C(/C=C/c1cccs1)c1ccc(Cl)c(Cl)c1 [Compound 16, (E)-1-(3,4-dichlorophenyl)-3-(thiophen-2-yl)prop-2-en-1-one]	22.1 (≈ 6.25 µg/mL)
Cc1ccc(C2CC(c3ccc(Cl)c(Cl)c3)=NN2c2ccccc2)cc1 (stereo not shown) [Compound 17, 3-(3,4-dichlorophenyl)-1-phenyl-5-(p-tolyl)-4,5-dihydro-1H-pyrazole]	262 (≈ 100 µg/mL)
Fc1ccc(C2CC(c3ccc(Cl)c(Cl)c3)=NN2c2ccccc2)c(F)c1 (stereo not shown) [Compound 22, 3-(3,4-dichlorophenyl)-1-phenyl-5-(2,4-difluorophenyl)-4,5-dihydro-1H-pyrazole]	3.96 (≈ 1.6 µg/mL)
Clc1ccc(C2CC(c3ccc(Cl)c(Cl)c3)=NN2c2ccccc2)c(Cl)c1 (stereo not shown) [Compound 23, 3-(3,4-dichlorophenyl)-1-phenyl-5-(2,4-dichlorophenyl)-4,5-dihydro-1H-pyrazole]	7.15 (≈ 3.12 µg/mL)
NC(=O)c1cnccn1 [Pyrazinamide, reference compound]	25.3 (≈ 3.12 µg/mL)

same assay, conditions: comparator compound 20

SMILES	fold improvement in antitubercular activity compared to compound 20 [fold]
Clc1ccc(C2CC(c3ccc(Cl)c(Cl)c3)=NN2c2ccccc2)c(Cl)c1 (stereo not shown) [Compound 23, 3-(3,4-dichlorophenyl)-1-phenyl-5-(2,4-dichlorophenyl)-4,5-dihydro-1H-pyrazole]	4

same assay, conditions: comparator compound 21

SMILES	fold improvement in antitubercular activity compared to compound 21 [fold]
Clc1ccc(C2CC(c3ccc(Cl)c(Cl)c3)=NN2c2ccccc2)c(Cl)c1 (stereo not shown) [Compound 23, 3-(3,4-dichlorophenyl)-1-phenyl-5-(2,4-dichlorophenyl)-4,5-dihydro-1H-pyrazole]	2

system: prostate cancer cell lines (DU-145); assay: Antiproliferative activity, MTT assay; type: cell-based; details: Homo sapiens, 48 h, mean ± SD (n = 3)
Method: (§1) The antiproliferative activity of the compounds was determined their IC50 values. Methotrexate (Mtx; positive control) was used as a reference standard for comparing the antiproliferative activity of the target compounds. The MTT (3-(4,5-dimethylthiazol-2-yl)-2,5-diphenyl tetrazolium bromide) assay was based on the reduction of the soluble MTT (0.5 mg mL^−1, 100 µL) into a blue-purple formazan product, mainly by the activity of mitochondrial reductase enzymes inside the living cells. The prostate cancer cell lines, DU-145 cells, were cultured in Dulbecco’s Modified Eagle Medium (DMEM) media at 37 °C and humidified at 5% CO2. Stock solutions of the test compounds (17–46) were prepared in 0.1% DMSO followed by dilution with sterile water to obtain the desired final concentrations. Briefly, the cells were placed on 96-well plates at 100 µL total volume with the density of 1 × 10^4 cells per well and were allowed to adhere for 24 h. Then the medium was replaced with fresh media containing different dilutions of the test compounds and incubated for additional 48 h at 37 °C in DMEM with 10% fetal bovine serum (FBS) medium. Subsequently, the medium was replaced with 90 μL of fresh DMEM without FBS. The above wells were treated with 10 μL of MTT reagent (5 mg/mL of stock solution in DMEM without FBS) and incubated at 37 °C for 3–4 h. The formed blue formazan crystals were dissolved in 200 μL of DMSO. The optical density was determined at 570 nm using a micro plate reader. The assay was performed in triplicate for three independent experiments. The same experimentation was also done to confirm that the DMSO (negative control) had no effect in the study. The results had good reproducibility between replicate wells with standard errors below 10%. The antiproliferative activity results measured as IC50 values in µg/mL were converted and expressed in µM. Additionally, the cytotoxic activity of the compounds was also measured employing the same protocol discussed above to assess their toxicity on normal human cell lines (L02).

SMILES	IC50 [µM]
O=C(/C=C/c1cccs1)c1ccc(Cl)c(Cl)c1 [Compound 16, (E)-1-(3,4-dichlorophenyl)-3-(thiophen-2-yl)prop-2-en-1-one]	17 ± 1
Cc1ccc(C2CC(c3ccc(Cl)c(Cl)c3)=NN2c2ccccc2)cc1 (stereo not shown) [Compound 17, 3-(3,4-dichlorophenyl)-1-phenyl-5-(p-tolyl)-4,5-dihydro-1H-pyrazole]	351 ± 2
Fc1ccc(C2CC(c3ccc(Cl)c(Cl)c3)=NN2c2ccccc2)c(F)c1 (stereo not shown) [Compound 22, 3-(3,4-dichlorophenyl)-1-phenyl-5-(2,4-difluorophenyl)-4,5-dihydro-1H-pyrazole]	262 ± 2
Clc1ccc(C2CC(c3ccc(Cl)c(Cl)c3)=NN2c2ccccc2)c(Cl)c1 (stereo not shown) [Compound 23, 3-(3,4-dichlorophenyl)-1-phenyl-5-(2,4-dichlorophenyl)-4,5-dihydro-1H-pyrazole]	206 ± 2

system: not listed separately; assay: Cytotoxic activity on normal cells, MTT assay; type: cell-based; details: L02 cells (normal human cell line)
Method: as §1

SMILES	IC50 at 48 h [µg/mL]
Cc1ccc(C2CC(c3ccc(Cl)c(Cl)c3)=NN2c2ccccc2)cc1 (stereo not shown) [Compound 17, 3-(3,4-dichlorophenyl)-1-phenyl-5-(p-tolyl)-4,5-dihydro-1H-pyrazole]	> 75
Fc1ccc(C2CC(c3ccc(Cl)c(Cl)c3)=NN2c2ccccc2)c(F)c1 (stereo not shown) [Compound 22, 3-(3,4-dichlorophenyl)-1-phenyl-5-(2,4-difluorophenyl)-4,5-dihydro-1H-pyrazole]	> 75
Clc1ccc(C2CC(c3ccc(Cl)c(Cl)c3)=NN2c2ccccc2)c(Cl)c1 (stereo not shown) [Compound 23, 3-(3,4-dichlorophenyl)-1-phenyl-5-(2,4-dichlorophenyl)-4,5-dihydro-1H-pyrazole]	> 75

same assay, conditions: normal human cell line L02

SMILES	IC50 at 48 h [µg/mL]
O=C(/C=C/c1cccs1)c1ccc(Cl)c(Cl)c1 [Compound 16, (E)-1-(3,4-dichlorophenyl)-3-(thiophen-2-yl)prop-2-en-1-one]	> 50

system: not given; assay: not given; details: not given

SMILES	melting point [°C]
O=C(/C=C/c1cccs1)c1ccc(Cl)c(Cl)c1 [Compound 16, (E)-1-(3,4-dichlorophenyl)-3-(thiophen-2-yl)prop-2-en-1-one]	194
Cc1ccc(C2CC(c3ccc(Cl)c(Cl)c3)=NN2c2ccccc2)cc1 (stereo not shown) [Compound 17, 3-(3,4-dichlorophenyl)-1-phenyl-5-(p-tolyl)-4,5-dihydro-1H-pyrazole]	168
Fc1ccc(C2CC(c3ccc(Cl)c(Cl)c3)=NN2c2ccccc2)c(F)c1 (stereo not shown) [Compound 22, 3-(3,4-dichlorophenyl)-1-phenyl-5-(2,4-difluorophenyl)-4,5-dihydro-1H-pyrazole]	291
Clc1ccc(C2CC(c3ccc(Cl)c(Cl)c3)=NN2c2ccccc2)c(Cl)c1 (stereo not shown) [Compound 23, 3-(3,4-dichlorophenyl)-1-phenyl-5-(2,4-dichlorophenyl)-4,5-dihydro-1H-pyrazole]	302

system: Aspergillus niger (ATCC-6275); assay: Antifungal activity, serial tube dilution method (MIC); details: not given

SMILES	fold better activity in comparison to fluconazole, Aspergillus niger [fold]
O=C(/C=C/c1cccs1)c1ccc(Cl)c(Cl)c1 [Compound 16, (E)-1-(3,4-dichlorophenyl)-3-(thiophen-2-yl)prop-2-en-1-one]	1.84

same assay, conditions: Aspergillus niger, ATCC6275, 18 h, read-out: Antifungal activity MIC, A. niger, serial tube dilution, 37 °C, 18 h, average of three

SMILES	MIC [µM]
O=C(/C=C/c1cccs1)c1ccc(Cl)c(Cl)c1 [Compound 16, (E)-1-(3,4-dichlorophenyl)-3-(thiophen-2-yl)prop-2-en-1-one]	14.1 (≈ 4 µg/mL)
Cc1ccc(C2CC(c3ccc(Cl)c(Cl)c3)=NN2c2ccccc2)cc1 (stereo not shown) [Compound 17, 3-(3,4-dichlorophenyl)-1-phenyl-5-(p-tolyl)-4,5-dihydro-1H-pyrazole]	42 (≈ 16 µg/mL)
Fc1ccc(C2CC(c3ccc(Cl)c(Cl)c3)=NN2c2ccccc2)c(F)c1 (stereo not shown) [Compound 22, 3-(3,4-dichlorophenyl)-1-phenyl-5-(2,4-difluorophenyl)-4,5-dihydro-1H-pyrazole]	19.8 (≈ 8 µg/mL)
Clc1ccc(C2CC(c3ccc(Cl)c(Cl)c3)=NN2c2ccccc2)c(Cl)c1 (stereo not shown) [Compound 23, 3-(3,4-dichlorophenyl)-1-phenyl-5-(2,4-dichlorophenyl)-4,5-dihydro-1H-pyrazole]	18.3 (≈ 8 µg/mL)
OC(Cn1cncn1)(Cn1cncn1)c1ccc(F)cc1F [Fluconazole, reference compound]	26.1 (≈ 8 µg/mL)

system: Candida tropicalis (ATCC-1369); assay: as above; details: not given

SMILES	fold better activity in comparison to fluconazole, Candida tropicalis [fold]
O=C(/C=C/c1cccs1)c1ccc(Cl)c(Cl)c1 [Compound 16, (E)-1-(3,4-dichlorophenyl)-3-(thiophen-2-yl)prop-2-en-1-one]	1.35

same assay, conditions: Candida tropicalis, ATCC1369, 18 h, read-out: Antifungal activity MIC, C. tropicalis, serial tube dilution, 37 °C, 18 h, average of three

SMILES	MIC [µM]
O=C(/C=C/c1cccs1)c1ccc(Cl)c(Cl)c1 [Compound 16, (E)-1-(3,4-dichlorophenyl)-3-(thiophen-2-yl)prop-2-en-1-one]	14.1 (≈ 4 µg/mL)
Cc1ccc(C2CC(c3ccc(Cl)c(Cl)c3)=NN2c2ccccc2)cc1 (stereo not shown) [Compound 17, 3-(3,4-dichlorophenyl)-1-phenyl-5-(p-tolyl)-4,5-dihydro-1H-pyrazole]	42 (≈ 16 µg/mL)
Fc1ccc(C2CC(c3ccc(Cl)c(Cl)c3)=NN2c2ccccc2)c(F)c1 (stereo not shown) [Compound 22, 3-(3,4-dichlorophenyl)-1-phenyl-5-(2,4-difluorophenyl)-4,5-dihydro-1H-pyrazole]	19.8 (≈ 8 µg/mL)
Clc1ccc(C2CC(c3ccc(Cl)c(Cl)c3)=NN2c2ccccc2)c(Cl)c1 (stereo not shown) [Compound 23, 3-(3,4-dichlorophenyl)-1-phenyl-5-(2,4-dichlorophenyl)-4,5-dihydro-1H-pyrazole]	36.7 (≈ 16 µg/mL)
OC(Cn1cncn1)(Cn1cncn1)c1ccc(F)cc1F [Fluconazole, reference compound]	19.6 (≈ 6 µg/mL)
